Laboratory results reported in ChEMBL document CHEMBL4393673, “Design, synthesis and biological evaluation of pyridine-chalcone derivatives as novel microtubule-destabilizing agents” (Eur J Med Chem, 2019).

What was measured:
H22 [1] = assay: Antitumor activity against mouse H22 cells allografted in ICR mouse assessed as reduction in tumour weight at 20 mg/kg, iv administered once per day for 21 days relative to control; format: functional; settings: 504 h
HCT-8 = assay: Antiproliferative activity against human HCT8 cells assessed as reduction in cell viability after 72 hrs by MTT assay; format: functional, cell-based; settings: HCT-8, 72 h
KB = assay: Antiproliferative activity against human KB cells assessed as reduction in cell viability after 72 hrs by MTT assay; format: functional, cell-based
MDA-MB-231 = assay: cells; settings: Homo sapiens, MDA-MB-231, 72 h
Description: Antiproliferative activity against human MDA-MB-231 cells assessed as reduction in cell viability after 72 hrs by MTT assay

[2] = Antiproliferative activity against […] cells assessed as reduction in cell viability after 72 hrs by MTT assay; format: functional, cell-based; settings: H22, 72 h
Tubulin = assay: Inhibition of tubulin polymerization (unknown origin) in presence of GTP measured after 60 mins by spectrophotometric method; format: protein-complex assay, Homo sapiens
Tubulin (Sus scrofa) [3] = target: T1, Tubulin (Sus scrofa) (UniProt P02554+P02550); assay: Inhibition of [3H]colchicine binding to biotinylated porcine tubulin at 5 uM in presence of GTP after 2 hrs by scintillation proximity assay relative to control; format: protein assay
T1 sequence (P02550 whole entry, looked up): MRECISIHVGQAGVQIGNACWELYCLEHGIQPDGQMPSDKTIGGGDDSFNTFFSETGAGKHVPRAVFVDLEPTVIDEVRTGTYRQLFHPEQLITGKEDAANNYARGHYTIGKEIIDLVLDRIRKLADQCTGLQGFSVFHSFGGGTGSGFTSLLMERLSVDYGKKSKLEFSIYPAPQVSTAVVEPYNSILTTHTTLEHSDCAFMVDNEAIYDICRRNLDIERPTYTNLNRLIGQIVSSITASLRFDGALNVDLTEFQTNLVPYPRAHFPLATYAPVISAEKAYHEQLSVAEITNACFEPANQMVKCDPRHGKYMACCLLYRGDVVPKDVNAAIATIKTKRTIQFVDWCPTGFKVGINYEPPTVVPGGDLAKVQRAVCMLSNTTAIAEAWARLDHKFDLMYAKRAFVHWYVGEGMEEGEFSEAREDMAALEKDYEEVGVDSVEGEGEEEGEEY
T1 sequence (P02554 whole entry, looked up): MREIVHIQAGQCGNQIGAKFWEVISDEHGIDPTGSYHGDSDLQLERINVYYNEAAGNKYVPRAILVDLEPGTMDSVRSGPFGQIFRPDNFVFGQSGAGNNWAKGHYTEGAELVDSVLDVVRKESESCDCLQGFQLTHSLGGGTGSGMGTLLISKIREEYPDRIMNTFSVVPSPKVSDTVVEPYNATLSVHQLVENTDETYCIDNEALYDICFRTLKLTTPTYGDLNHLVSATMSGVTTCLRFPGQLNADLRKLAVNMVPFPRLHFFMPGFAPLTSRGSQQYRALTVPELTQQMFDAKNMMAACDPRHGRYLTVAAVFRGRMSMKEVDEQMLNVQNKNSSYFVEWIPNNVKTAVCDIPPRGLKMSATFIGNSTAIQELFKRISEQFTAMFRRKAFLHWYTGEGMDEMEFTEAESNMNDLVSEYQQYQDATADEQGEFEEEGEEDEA

Tubulin (Sus scrofa) [4] = target: T1, Tubulin (Sus scrofa); assay: Inhibition of [3H]colchicine binding to biotinylated porcine tubulin at 1 uM in presence of GTP after 2 hrs by scintillation proximity assay relative to control; format: protein assay
L02 = assay: cells; settings: Homo sapiens, L02, 72 h
Description: Cytotoxicity against human LO2 cells assessed as reduction in cell viability after 72 hrs by MTT assay

K562 = assay: Antiproliferative activity against human K562 cells assessed as reduction in cell viability after 72 hrs by MTT assay; format: functional, cell-based; settings: K562, 72 h
Tubulin (Homo sapiens) [5] = target: T2, Tubulin (Homo sapiens) (UniProt P68371+Q9H4B7+P0DPH7+P68366+Q13509+Q71U36+P04350+Q3ZCM7+P07437+P68363+Q9BQE3+Q6PEY2+Q13885+Q9BVA1+Q9BUF5); assay: Inhibition of tubulin polymerization in human K562 cells assessed as disruption of cytosolic microtubule networks after 24 hrs by DAPI staining based immunofluorescence microscopic method; format: cell-based
Tubulin (Homo sapiens) [6] = target: T2, Tubulin (Homo sapiens); assay: Inhibition of tubulin polymerization in human MDA-MB-231 cells assessed as disruption of cytosolic microtubule networks after 24 hrs by DAPI staining based immunofluorescence microscopic method; format: cell-based
H22 [7] = assay: Antitumor activity against mouse H22 cells allografted in ICR mouse assessed as reduction in tumour weight at 6 mg/kg, iv administered once per 2 days for 21 days relative to control; format: functional
[8] = Toxicity in ICR mouse allografted with mouse H22 cells assessed as body weight loss at 6 mg/kg, iv administered once per 2 days for 21 days; format: organism-based; settings: in vivo

IC50 (Tubulin) [nM]	inhibition (Tubulin (Sus scrofa) [3]) [%]	inhibition (Tubulin (Sus scrofa) [4]) [%]	Structure (SMILES)	inhibition in vivo at 20 mg/kg (H22 [1]) [%]	IC50 [2] [nM]	other results
–	–	–	COc1ccc(/C=C\c2cc(OC)c(OC)c(OC)c2)cc1OP(=O)(O)O [FOSBRETABULIN DISODIUM]	62.7	–	–
–	–	–	COc1ccc(/C=C\c2cc(OC)c(OC)c(OC)c2)cc1O [COMBRETASTATIN A4]	50.9	8	IC50 (HCT-8): 10 nM; IC50 (KB): 11 nM; IC50 (MDA-MB-231): 10 nM
3050	78.3	70.2	COc1ccc(/C=C/C(=O)c2cc(OC)c(OC)c(OC)c2)cc1O	–	132	IC50 (L02): 421 nM; IC50 (K562): 68 nM
2080	87.9	75.1	COc1cc(C(=O)/C(C)=C/c2ccc(OC)c(O)c2)cc(OC)n1	–	–	Activity (Tubulin (Homo sapiens) [5]): Dose-dependent effect; Activity (Tubulin (Homo sapiens) [6]): Dose-dependent effect
–	–	–	CC(=O)O[C@H]1C(=O)[C@@]2(C)[C@H]([C@H](OC(=O)c3ccccc3)[C@]3(O)C[C@H](OC(=O)[C@H](O)[C@@H](NC(=O)c4ccccc4)c4ccccc4)C(C)=C1C3(C)C)[C@]1(OC(C)=O)CO[C@@H]1C[C@@H]2O [PACLITAXEL]	–	–	inhibition in vivo at 6 mg/kg (H22 [7]): 72.7%; Activity [8]: Toxic
